Reference: ChEMBL document CHEMBL5518177, “Discovery of GPX4 inhibitors through FP-based high-throughput screening” (Eur J Med Chem, 2024)
pIC50, pKd: −log10 of the molar value. Each block holds one compound with its values, some of them ahead of it. The source made the active and inactive calls. The rule behind the calls is not given here.

Tests used:
[1] = Binding affinity to N-terminal 6His-TEV-tagged recombinant human GPX4-U46C-C10A-C66A mutant (Met1 to Phe170 residues) expressed in Escherichia coli BL21 (DE3) cells incubated for 20 mins in presence of FITC-labeled peptide by fluorescence polarization based competitive binding assay; assay type: cell-based
[2] = Inhibition of N-terminal 6His-TEV-tagged recombinant human GPX4-U46C-C10A-C66A mutant (Met1 to Phe170 residues) expressed in Escherichia coli BL21 (DE3) cells incubated for 20 mins by fluorescence polarization based high-throughput screening assay
Homo sapiens [3] = organism: Homo sapiens; assay: Inhibition of N-terminal 6His-TEV-tagged recombinant human GPX4-U46C-C10A-C66A mutant (Met1 to Phe170 residues) expressed in Escherichia coli BL21 (DE3) cells at 1 to 100 uM incubated for 20 mins by fluorescence polarization based high-throughput screening assay; conditions: dose 1-100 µM
Homo sapiens [4] = organism: Homo sapiens; assay: (§1) Inhibition of N-terminal 6His-TEV-tagged recombinant human GPX4-U46C-C10A-C66A mutant (Met1 to Phe170 residues) expressed in Escherichia coli BL21 (DE3) cells using tert-butyl peroxide as substrate assessed as Km at 30 uM preincubated for 10 mins in presence of NADPH and GSH followed by substrate addition and measured after 30 mins by absorbance based plate reader analysis (reference value: 36.04 +/- 7.80 microM); conditions: time 40.0 min
Homo sapiens [5] = organism: Homo sapiens; assay: Inhibition of N-terminal 6His-TEV-tagged recombinant human GPX4-U46C-C10A-C66A mutant (Met1 to Phe170 residues) expressed in Escherichia coli BL21 (DE3) cells using tert-butyl peroxide as substrate assessed as Vmax at 10 uM preincubated for 10 mins in presence of NADPH and GSH followed by substrate …; conditions: time 40.0 min
Homo sapiens [6] = organism: Homo sapiens; assay: Reversible inhibition of N-terminal 6His-TEV-tagged recombinant human GPX4-U46C-C10A-C66A mutant (Met1 to Phe170 residues) expressed in Escherichia coli BL21 (DE3) cells by mass spectrum analysis
[7] = as §1, with “hydroperoxide” for “peroxide”, “substrate” for “substrate assessed as Km at 30 uM”, “analysis” for “analysis (reference value: 36.04 +/- 7.80 microM)”
Homo sapiens [8] = organism: Homo sapiens; assay: as §1, with “as Vmax” for “as Km”, “at 20” for “at 30”, “value: 0.556” for “value: 36.04”, “+/- 0.058 nM/min)” for “+/- 7.80 microM)”; conditions: time 40.0 min
Homo sapiens [9] = organism: Homo sapiens; assay: Inhibition of N-terminal 6His-TEV-tagged recombinant human GPX4-U46C-C10A-C66A mutant (Met1 to Phe170 residues) expressed in Escherichia coli BL21 (DE3) cells using tert-butyl peroxide as substrate assessed as Km at 10 uM preincubated for 10 mins in presence of NADPH and GSH followed by substrate …; conditions: time 40.0 min
[10] = Binding affinity to N-terminal 6His-TEV-tagged recombinant human GPX4-U46C-C10A-C66A mutant (Met1 to Phe170 residues) expressed in Escherichia coli BL21 (DE3) cells assessed as dissociation constant incubated for 10 mins by microscale thermophoresis assay
Homo sapiens [11] = organism: Homo sapiens; assay: as §1, with “as Vmax” for “as Km”, “at 40” for “at 30”, “value: 0.556” for “value: 36.04”, “+/- 0.058 nM/min)” for “+/- 7.80 microM)”; conditions: time 40.0 min
Homo sapiens [12] = organism: Homo sapiens; assay: as §1, with “at 40” for “at 30”; conditions: time 40.0 min
Homo sapiens [13] = organism: Homo sapiens; assay: Non-covalent binding to N-terminal 6His-TEV-tagged recombinant human GPX4-U46C-C10A-C66A mutant (Met1 to Phe170 residues) expressed in Escherichia coli BL21 (DE3) cells by mass spectrum analysis
Homo sapiens [14] = organism: Homo sapiens; assay: as §1, with “at 20” for “at 30”; conditions: time 40.0 min
Homo sapiens [15] = organism: Homo sapiens; assay: as §1, with “Vmax” for “Km”, “0.556” for “36.04”, “0.058 nM/min)” for “7.80 microM)”; conditions: time 40.0 min
Homo sapiens [16] = organism: Homo sapiens; assay: as §1, with “at 50” for “at 30”; conditions: time 40.0 min
Homo sapiens [17] = organism: Homo sapiens; assay: as §1, with “as Vmax” for “as Km”, “at 50” for “at 30”, “value: 0.556” for “value: 36.04”, “+/- 0.058 nM/min)” for “+/- 7.80 microM)”; conditions: time 40.0 min

- pIC50 [1]: 5.60
Compound: Cc1c(NCS(=O)(=O)O)c(=O)n(C2CCCCC2)n1C

- pIC50 [1]: 5.07
Compound: Cc1c(NCS(=O)(=O)O)c(=O)n(-c2ccc(-c3ccoc3)cc2)n1C

- pIC50 [1]: < 4.00
Compound: Cc1c(NCS(=O)(=O)O)c(=O)n(-c2cccc(-c3ccccc3)c2)n1C

- pIC50 [2]: 5.18
Compound: O=C(O)[C@H](O)Cc1ccc(O)c(O)c1
- inhibition (Homo sapiens [3]): Active

- pIC50 [1]: 5.33
Compound: Cn1c(C2CC2)c(NCS(=O)(=O)O)c(=O)n1-c1ccccc1

- pIC50 [1]: < 4.00
Compound: CCc1c(NCS(=O)(=O)O)c(=O)n(-c2ccccc2)n1C

- pIC50 [1]: 4.64
Compound: Cn1c(CO)c(NCS(=O)(=O)O)c(=O)n1-c1ccccc1

- pIC50 [1]: 5.38
Compound: Cc1c(NCS(=O)(=O)O)c(=O)n(-c2ccccc2-c2ccccc2)n1C

- pIC50 [1]: 5.34
Compound: CC(C)c1c(NCS(=O)(=O)O)c(=O)n(-c2ccccc2)n1C

- pIC50 [2]: 5.34
Compound: C=CC1=C(C)C(=O)N/C1=C\c1[nH]c(Cc2[nH]c(/C=C3\NC(=O)C(C)=C3C=C)c(C)c2CCC(=O)O)c(CCC(=O)O)c1C
- inhibition (Homo sapiens [3]): Active

- pIC50 [1]: 5.63
Compound: Cc1c(NCS(=O)(=O)O)c(=O)n(-c2ccccc2)n1C

- pIC50 [1]: < 4.00
Compound: CNC(=O)CN(C)c1c(C)n(C)n(-c2ccccc2)c1=O

- pIC50 [2]: 5.29
Compound: O=c1oc2cc(O)ccc2s1 [TIOXOLONE]
- inhibition (Homo sapiens [3]): Active

- pIC50 [1]: 5.32
- pIC50 [7]: 4.51
- pIC50 [2]: 5.85
Compound: Cc1c(N(C)CS(=O)(=O)O)c(=O)n(-c2ccccc2)n1C [DIPYRONE SODIUM]
- Km (Homo sapiens [4]): 15.7 µM
- Vmax (Homo sapiens [5]): 0.439 nM/min
- inhibition (Homo sapiens [6]): Dose-Dependent Effect
- Vmax (Homo sapiens [8]): 0.361 nM/min
- Km (Homo sapiens [9]): 23.4 µM
- pKd [10]: 5.28
- Vmax (Homo sapiens [11]): 0.306 nM/min
- Km (Homo sapiens [12]): 12.1 µM
- inhibition (Homo sapiens [3]): Active
- Activity (Homo sapiens [13]): Active
- Km (Homo sapiens [14]): 17.2 µM
- Vmax (Homo sapiens [15]): 0.345 nM/min
- Km (Homo sapiens [16]): 11.9 µM
- Vmax (Homo sapiens [17]): 0.289 nM/min

- pIC50 [1]: 5.02
Compound: Cc1c(NCS(=O)(=O)O)c(=O)n(-c2cccc(-c3ccc(Br)cc3)c2)n1C

- pIC50 [1]: < 4.00
Compound: Cc1c(NCS(=O)(=O)O)c(=O)n(-c2ccccc2)n1C(C)C

- pIC50 [1]: 5.24
Compound: Cc1c(NCS(=O)(=O)O)c(=O)n(-c2ccccc2-c2ccoc2)n1C

- pIC50 [1]: < 4.00
Compound: Cc1c(NCC(=O)O)c(=O)n(-c2ccccc2)n1C

- pIC50 [1]: 5.23
Compound: Cc1c(NCS(=O)(=O)O)c(=O)n(-c2cccc(-c3ccoc3)c2)n1C

- pIC50 [2]: 4.86
Compound: Cc1c(S(=O)(=O)O)oc2c1C(=O)C(=O)c1c-2ccc2c1CCCC2(C)C [SODIUM TANSHINONE IIA SULFONATE]
- inhibition (Homo sapiens [3]): Active

- pIC50 [1]: 5.22
Compound: CCCn1c(C)c(NCS(=O)(=O)O)c(=O)n1-c1ccccc1

- pIC50 [1]: 5.45
Compound: Cc1c(NCS(=O)(=O)O)c(=O)n(-c2ccccn2)n1C

- pIC50 [1]: < 4.00
Compound: Cc1c(NCS(=O)(=O)O)c(=O)n(-c2ccc(-c3ccccc3)cc2)n1C

- pIC50 [1]: < 4.00
Compound: CCCc1c(NCS(=O)(=O)O)c(=O)n(-c2ccccc2)n1C

- pIC50 [1]: 4.92
Compound: Cc1c(NCS(=O)(=O)O)c(=O)n(-c2ccccc2Br)n1C

- pIC50 [2]: 5.12
Compound: N[C@@H](CO)C(=O)NNCc1ccc(O)c(O)c1O
- inhibition (Homo sapiens [3]): Active

- pIC50 [1]: 4.99
Compound: Cc1c(NCS(=O)(=O)O)c(=O)n(-c2cccc(Br)c2)n1C
